According to article PMC9143043, “Synthesis and Biological Evaluation of 5′-O-Fatty Acyl Ester Derivatives of 3′-Fluoro-2′,3′-dideoxythymidine as Potential Anti-HIV Microbicides” (Molecules, 2022):
Read-outs that look alike come from different tables or passages of the source.

How the values were obtained:
CCRF-CEM cells [1] = assay: Real-time fluorescence microscopy in live cells; assay type: cell-based, human; conditions: 10 µM, 1 h
Experimental: Cells incubated with 10 µM of DMSO, FAM, 23 and 24 for 1 h were used for real time fluorescence microscopy using transmitted light microscopy equipped with a differential-interference contrast method and an Achroplan 40× objective.
The products were purified on a Phenomenex®Gemini 10 µm ODS reversed-phase column (2.1 × 25 cm) with a Hitachi HPLC system using a gradient increment in the acetonitrile (0.1%TFA) concentration from 0 to 100% in 45 min at a constant flow rate of 17 mL/min. The purity of the compounds was confirmed by using an analytical Hitachi analytical HPLC system on a C18 column (Grace Allsphere ODS 2–3 µ, 150 × 4.6 mm) using a gradient system (water:acetonitrile 30:70 v/v) at a constant flow rate of 1 mL/min with a UV detection at 265 nm. The chemical structures of the final products were characterized by nuclear magnetic resonance spectrometry (^1H NMR and ^13C NMR) determined on a Bruker NMR spectrometer (400 MHz, Daltonik, Bremen, Germany) and confirmed by a high-resolution PE Applied Biosystems Mariner API time-of-flight electrospray mass spectrometer (Waltham, MA, USA). Chemical shifts are reported in parts per millions (ppm). For cellular uptake studies, cells were analyzed by flow cytometry (FACSCalibur: Becton Dickinson, San Jose, CA, USA) using the FITC channel and CellQuest software 7.5.3 (Becton Dickinson, San Jose, CA, USA). […]

CCRF-CEM cells [2] = assay: Cell viability study (trypan blue, Cellometer); assay type: cell-based, human; conditions: 10 µM, 24 h incubation
Experimental: Cell viability study was performed to analyze the effect of FAM, 23, and 24 on the live cells. The CCRF-CEM cells were incubated with 10 µM of the compounds and mixed with trypan blue (0.1%) to color the dead cells. The percentage of viability was calculated by using Cellometer Auto T.4 (Nexcelom Bioscience). It was observed that at least 80% of the cells were viable in the presence of the compounds in a 24 h incubation period (Supporting Materials, Figure S1).
(§1) Human T lymphoblastoid cells (CCRF-CEM, ATCC No. CCL-119) were grown to 70% confluency in a culture medium. CCRF-CEM cells were incubated with 10 µM of the compounds and mixed with trypan blue (0.1%) to color the dead cells. The percentage of viability was calculated by using a Cellometer Auto T.4 (Nexcelom Bioscience). The cell viability against the vaginal cells (VK-2/E6E7) was conducted according to the previously reported procedure. The effect of conjugates on the sperm viability and mobility was evaluated as described previously.

[3] = tested on: HIV-infected T4 lymphocytes; parameters: method as in PMID 9191015; conditions: read-out: EC50 against HIV-infected T4 lymphocytes; cited from earlier work
Cytotoxicity assay (MTS) = assay type: cell-based; conditions: human, HeLa cells (ATCC CCL-2.1)
[4] = tested on: HIV-1 strain IIIB (lymphocytotropic strain); assay: Single-round infection assay, cell-free X4 virus (lymphocytotropic strain); assay type: cell-based
Experimental: (§2) Anti-HIV activities of the compounds were evaluated according to the previously reported procedure. In summary, the HeLa (Human cervical carcinoma: ATCC CCL-2.1) cell line was used to measure the inactivation of both the cell-free virus preparations and virus-infected cell preparations. The cells were plated in culture plates 24 h prior to each experiment. Cell-free viral preparations of HIV-1 strains IIIB (lymphocytotropic strain) and BaL (monocytotropic strain) were used for the cell-free assay. For the cell-associated assay, the SulT1 cells were infected with IIIB virus 5 days prior to the experiment. Cell-free virus and virus-infected cells were mixed with different compounds and diluted to make different concentrations. The mixture was further diluted with the buffer and added to the HeLa cells.

[5] = tested on: HIV-1 strain BaL (monocytotropic strain); assay: Single-round infection assay, cell-free R5 virus (monocytotropic strain); assay type: cell-based; conditions: Human immunodeficiency virus 1, BAL
Experimental: as §2

[6] = tested on: cell-associated HIV-1 IIIB (infected SulT1 cells); assay: Cell-associated transmission assay (IIIB); assay type: cell-based; conditions: Human immunodeficiency virus 1, IIIB
Experimental: as §2

sperm = assay: Spermicidal activity (sperm viability and motility); assay type: cell-based; conditions: abstract; versus N-9 positive control
Experimental: In this study, several fatty acyl conjugates of nucleosides (5–8, 10–12, 15, and 16) were tested for their spermicidal activities. […] Detailed data analysis is available in the Supplementary Materials (Figure S2).
as §1

[7] = tested on: human vaginal cells (VK-2/E6E7); assay: Vaginal cell cytotoxicity (MTS assay); assay type: cell-based; conditions: 6 h incubation; 31-1000 µg/mL
Experimental: A commercially used spermicidal agent (N-9) and conjugate cytotoxicity was evaluated using immortalized human vaginal cells (VK-2/E6E7). […] Observed cytotoxicity from N-9 could be correlated with the generation of higher levels of cytokines by N-9.
as §1
Figure 2 (A) Dose–response curves of the vaginal cytotoxicity in VK-2 cells (MTS assay) for 5, 6, 8, and N-9 after 6 h incubations. (B) Proinflammatory cytokine (IL-1α) production in the VK-2 cells (ELISA) after a 6 h incubation in the presence of 5, 6, 8, and N-9.

HIV-1 = assay: Anti-HIV activity overall (cell-free and cell-associated assays) and antiviral index; assay type: cell-based; conditions: for antiviral index, times better than AZT: versus AZT; for antiviral index, times better than FLT: versus FLT
From the text: Table 2, Table 3 and Table 4 illustrate the anti-HIV-1 activities against the cell-free, cell-associated, and multidrug-resistant virus and sperm inhibiting properties of the selected compounds. In summary, the anti-HIV activity of 5′-substituted derivatives of FLT and AZT (5–18) was dependent on the nature of the 5′-substituent. […] None of the other esters were active against cell-associated virus. […] The difference in the activity of fatty acyl derivatives of FLT compared to each other and FLT may be due to their differences in the rate of uptake and intracellular hydrolysis.
By design, the ester moiety in the conjugates needs to be hydrolyzed to render parent nucleosides and fatty acids to produce anti-HIV activity. The anti-HIV activities of 5′-O-ether substituted FLT and AZT (3 and 4, Scheme 2) with a stable tetradecanyl (myristyl) group were compared with hydrolyzable 5′-O-ester substituted FLT and AZT (6 and 7).
as §2

[8] = tested on: HIV-1 94US3393IN (B-Wild Type); assay: PBMC multi-round infection assay, clinical isolate 94US3393IN; assay type: cell-based; conditions: Human immunodeficiency virus 1
Experimental: (§3) Based on a preliminary screening, conjugates 5 and 8 were evaluated for their ability to inhibit a drug-resistant virus in a peripheral blood mononuclear cell (PBMC) assay. In this assay, FLT, 5, and 8 were tested against B- and C-wild type and A-17 and 4755–5 multidrug-resistant (MDR) clinical isolates of HIV-1, where compounds were incubated with PBMCs for 6 h and then washed off before the addition of the virus and further culture for 7 days.
(§4) For the assessment of compounds against the wild type (WT; R5; clones = 94US3393IN [B subtype] and 98USMSC5016 [C subtype]) and drug-resistant (clones = 4755−5 and A17) HIV-1 clinical isolates, PHA-P stimulated cells from at least two normal donors were pooled, diluted in fresh media, and plated in the interior wells of a 96-well round-bottom microplate. Pooling PBMCs from more than one donor was used to minimize the variability observed between the individual donors, which results from the quantitative and qualitative differences in HIV infection and overall response to the PHA and IL-2 of primary lymphocyte populations. Each plate contained virus/cell control wells (cells + virus), experimental wells (drug + cells + virus), and compound control wells (drug + media, no cells, necessary for MTS monitoring of cytotoxicity). Test drug dilutions were prepared in microtiter tubes, and each concentration was placed in appropriate wells. Following the addition of the drug dilutions to the PBMCs, a predetermined dilution of virus stock was then placed in each test well (final MOI ≅ 0.1). Because HIV-1 is not cytopathic to PBMCs, the same assay plate can be used for both the antiviral efficacy and cytotoxicity measurements. Compounds were incubated with virus and cells in a 96-well format for 6 h. The cells were then washed by removing 75% of the medium (150 μL) and replacing it with 150 μL of fresh (no drug) medium. The plates were then centrifuged (∼200 g) for 10 min, after which 150 μL of the medium was removed, and an additional 150 μL of fresh medium was added to each well and further incubated for 6 days or until peak reverse transcriptase (RT) activity was detected. A microtiter plate-based RT reaction was utilized. Incorporated radioactivity (counts per minute, CPM) was quantified using standard liquid scintillation techniques. Compound IC50 (50%, inhibition of virus replication) was calculated using statistical software and regression analysis. A cellular uptake study was conducted for fluorescence conjugates 23 and 24 using a previously published procedure with minor modifications. All of the experiments were conducted in triplicate.

[9] = tested on: HIV-1 98USMSC5016 (C-Wild Type); assay: PBMC multi-round infection assay, clinical isolate 98USMSC5016; assay type: cell-based; conditions: Human immunodeficiency virus 1
Experimental: as §3, §4

HIV-1 A-17 MDR (B-NNRTI) = assay: PBMC multi-round infection assay, resistant isolate A-17; assay type: cell-based
Experimental: as §3, §4

HIV-1 4755-5 MDR (B-MDR) = assay: PBMC multi-round infection assay, resistant isolate 4755-5; assay type: cell-based
Experimental: as §3, §4

[10] = Table 2, MTS, 50% effective concentration
[11] = Human immunodeficiency virus 1, IIIB, read-out: (X4) EC50, Table 2, single-round infection assay
[12] = read-out: (CA) EC50, Table 2, cell-associated transmission assay (IIIB)
[13] = Human immunodeficiency virus 1, PBMC

Which “cell fluorescence (real time fluorescence microscopy)” value (CCRF-CEM cells [1]) does the source give for 5(6)-carboxyfluorescein [FAM] here?
The value was “no significant fluorescence”.

What about the viable cells (CCRF-CEM cells [2]) of the same molecule?
The viable cells was “at least 80%”.

Which EC50 [3] does the source give for `CCSCCCCCCCCCCCC(=O)O` [12-thioethyldodecanoic acid] here?
Its EC50 is 9.4 µM.

For `CCCCCCCCCCCCCC(=O)OC[C@H]1O[C@@H](n2cc(C)c(=O)[nH]c2=O)C[C@@H]1F` [Compound 6, 5′-O-(myristoyl)-3′-fluoro-2′,3′-dideoxythymidine], which EC50 (Cytotoxicity assay (MTS); [10]) is on record?
Its EC50 is 606 µM.

What about the EC50 (Cytotoxicity assay (MTS); Table 3, conjugates vs physical mixtures) of the same molecule?
Its EC50 is 606 µM.

What about the EC50 [4, 11] of the same molecule?
The EC50 was at most 1 µM.

What about the EC50 ([4]; Human immunodeficiency virus 1, IIIB, read-out: (X4) EC50, Table 3, viral entry inhibition assay) of the same molecule?
Its EC50 is 0.7 µM.

What about the EC50 ([5]; read-out: (R5) EC50, Table 2, single-round infection assay) of the same molecule?
The EC50 was at most 1 µM.

What about the EC50 ([5]; read-out: (R5) EC50, Table 3, viral entry inhibition assay) of the same molecule?
Its EC50 is 1.1 µM.

What about the EC50 [6, 12] of the same molecule?
The EC50 was 6.4 µM.

What about the EC50 ([6]; read-out: (CA) EC50, Table 3, cell-to-cell transmission assay (IIIB)) of the same molecule?
The EC50 was 6.4 µM.

And the “effect on sperm viability” value (sperm)?
Its value is “did not alter vaginal cell and sperm viability”.

And the “cytotoxicity to vaginal cells” value [7]?
The value was “did not show significant cytotoxic effects”.

What about the “anti-HIV activity (in words)” value (HIV-1) of the same molecule?
Its value is “significant anti-HIV activity at noncytotoxic concentrations”.

And the “antiviral index, times better than AZT” value (HIV-1)?
Its value is over 30 times.

What about the “antiviral index, times better than FLT” value (HIV-1) of the same molecule?
Its value is over 4 times.

What does the source list for `CCSCCCCCCCCCCCC(=O)OC[C@H]1O[C@@H](n2cc(C)c(=O)[nH]c2=O)C[C@@H]1F` [Compound 8, 3′-fluoro-2′,3′-dideoxy-5′-O-(12-thioethyldodecanoyl)thymidine]?
EC50 (Cytotoxicity assay (MTS); [10]): > 2000 µM; EC50 [4, 11]: ≤ 1 µM; EC50 ([4]; read-out: (X4) EC50, Table 2, single-round infection assay): 1 µM; EC50 [6, 12]: 2.3 µM; IC50 [8]: 0.0006 µM; IC90 [8]: 0.0103 µM; IC50 [9]: 0.001 µM; IC90 [9]: 0.0082 µM; IC50 (HIV-1 A-17 MDR (B-NNRTI); [13]): 0.0136 µM; IC90 (HIV-1 A-17 MDR (B-NNRTI); [13]): 0.0457 µM; fold more potent than FLT against A-17 (HIV-1 A-17 MDR (B-NNRTI); versus FLT IC50): twice as active; IC50 (HIV-1 4755-5 MDR (B-MDR); [13]): 0.112 µM; IC90 (HIV-1 4755-5 MDR (B-MDR); [13]): 0.662 µM; fold more potent than FLT against 4755-5 (HIV-1 4755-5 MDR (B-MDR); versus FLT IC50): equally active; effect on sperm viability (sperm): did not alter vaginal cell and sperm viability; cytotoxicity to vaginal cells [7]: did not show significant cytotoxic effects; anti-HIV activity (in words) (HIV-1): significant anti-HIV activity at noncytotoxic concentrations; antiviral index, times better than AZT (HIV-1): > 30 times; antiviral index, times better than FLT (HIV-1): > 4 times
